Patent US11000033B2, “Ketone or oxime compound, and herbicide” (NISSAN CHEMICAL CORPORATION, priority 2014, dated 2021)

Legend:
Assay type in all cases: in vivo
Chenopodium album = experiment: Test Example 5: herbicidal effect by foliage application, plastic box (symbol O); settings: 320 g/ha, 3 weeks after application
Outline: (§1)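 Sowing in sterilized diluvial soil, 14 days' greenhouse growth at 25° C. to 30° C., then uniform small-sprayer foliar application of aqueous emulsion dilution; plants scored three weeks afterwards.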

soybean = experiment: Test Example 5: effect on crop by foliage application, plastic box (symbol d); settings: 320 g/ha, 3 weeks after application
Outline: (§2)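 Greenhouse test at 25° C. to 30° C. Seeds of crops and weeds were spot-sown in boxes of sterilized diluvial soil under roughly 1.5 cm soil cover, then grown for foliage treatment.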

Veronica persica = experiment: Test Example 5: herbicidal effect by foliage application, plastic box (symbol R); settings: 320 g/ha, 3 weeks after application
Outline: as §1

corn = experiment: Test Example 4: effect on crop by soil treatment (symbol c); settings: application herbicide amount 320 g/ha
Outline: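 The test used sterilized diluvial soil. Seed was set down in spots and overlaid with about 1.5 cm of soil before growth in a greenhouse kept at 25° C. to 30° C.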

Lolium multiflorum Lam. = experiment: Test Example 4: herbicidal effect by soil treatment (symbol K); settings: application herbicide amount 320 g/ha
Outline: (§3)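 Seeds were sown in sterilized diluvial soil, covered with about 1.5 cm of soil, and the soil surface was sprayed with a water-diluted emulsion of the compound at a predetermined rate. Plants grew in a greenhouse at 25° C. to 30° C.; effects were scored visually 3 weeks after application.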

Stellaria media = experiment: Test Example 4: herbicidal effect by soil treatment (symbol P); settings: application herbicide amount 320 g/ha
Outline: as §3

Apera spica-venti = experiment: Test Example 4: herbicidal effect by soil treatment (symbol L); settings: application herbicide amount 320 g/ha
Outline: as §3

Amaranthus retroflexus = experiment: Test Example 4: herbicidal effect by soil treatment (symbol N); settings: application herbicide amount 320 g/ha
Outline: as §3

wheat = experiment: Test Example 5: effect on crop by foliage application, plastic box (symbol e); settings: 320 g/ha, 3 weeks after application
Outline: as §2

[1] = tested on: Echinochloa crus-galli var. crus-galli; experiment: Test Example 5: herbicidal effect by foliage application, plastic box (symbol H); settings: 320 g/ha, 3 weeks after application
Outline: as §1

Abutilon theophrasti = experiment: Test Example 5: herbicidal effect by foliage application, plastic box (symbol M); settings: 320 g/ha, 3 weeks after application
Outline: as §1

Monochoria vaginalis = experiment: Test Example 1: herbicidal activity, application before weed generation in submerged conditions (symbol C); settings: application herbicide amount 320 g/ha
Outline: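 Flooded alluvial soil (4 cm water) was mixed-sown with the three weed species, and 2.5-leaf rice seedlings were transplanted. On sowing day, a water-diluted emulsion at a predetermined rate was applied to the water surface. After 3 weeks in a 25–30 °C greenhouse, effect was scored 0–5.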

Alopecurus myosuroides = experiment: Test Example 4: herbicidal effect by soil treatment (symbol J); settings: application herbicide amount 320 g/ha
Outline: as §3

[2] = tested on: Echinochloa crus-galli var. crus-galli; experiment: Test Example 3: herbicidal effect by foliage application, Wagner pot (symbol H); settings: application herbicide amount 320 g/ha
Outline: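 Foliar spray of a water-diluted emulsion at a predetermined herbicide amount, applied to 14-day-old plants. Seedlings were raised in flooded alluvial soil (0.1–0.5 cm water) at 25–30 °C in a greenhouse. Injury was rated after 3 weeks against fixed criteria.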

[3] = tested on: directly sowed rice plant; experiment: Test Example 3: effect on crop by foliage application, Wagner pot (symbol b); settings: application herbicide amount 320 g/ha
Outline: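 Steps: fill a 1/10000-are Wagner pot with alluvial soil; add water and mix to submerge at 0.1–0.5 cm depth; sow rice plus Echinochloa crus-galli var. crus-galli, Leptochloa chinensis and Cyperus difformis; grow in a 25–30 °C greenhouse.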

Setaria viridis = experiment: Test Example 5: herbicidal effect by foliage application, plastic box (symbol G); settings: 320 g/ha, 3 weeks after application
Outline: as §1

Structure (SMILES)	O: Chenopodium album, herbicidal effect grade (Chenopodium album)	d: soybean, effect on crop grade (soybean)	R: Veronica persica, herbicidal effect grade (Veronica persica)	c (corn) effect on crop grade (corn)	K (Lolium multiflorum Lam.) herbicidal effect grade (Lolium multiflorum Lam.)	P (Stellaria media) herbicidal effect grade (Stellaria media)	L (Apera spica-venti) herbicidal effect grade (Apera spica-venti)	N (Amaranthus retroflexus) herbicidal effect grade (Amaranthus retroflexus)	e: wheat, effect on crop grade (wheat)	H: Echinochloa crus-galli var. crus-galli, herbicidal effect grade [1]	M: Abutilon theophrasti, herbicidal effect grade (Abutilon theophrasti)	Herbicidal effect grade, C: Monochoria vaginalis (Monochoria vaginalis)	J (Alopecurus myosuroides) herbicidal effect grade (Alopecurus myosuroides)	herbicidal effect on H (Echinochloa crus-galli var. crus-galli), grade 0-5 [2]	effect on crop b (directly sowed rice plant), grade 0-5 [3]	G: Setaria viridis, herbicidal effect grade (Setaria viridis)
COCCON=C(C)CC1CC(O)=C(c2c(C)cc(C)cc2C)C1=O (centres unmarked) [1-041]	3 (Herbicidal ratio of 40% or higher and lower than 70%)	4 (Herbicidal ratio of 70% or higher and lower than 90%)	3 (Herbicidal ratio of 40% or higher and lower than 70%)	4 (Herbicidal ratio of 70% or higher and lower than 90%)	5 (Herbicidal ratio of 90% or more (almost completely withered))	0 (Herbicidal ratio of 5% or lower (almost no effect))	5 (Herbicidal ratio of 90% or more (almost completely withered))	3 (Herbicidal ratio of 40% or higher and lower than 70%)	5 (Herbicidal ratio of 90% or more (almost completely withered))	5 (Herbicidal ratio of 90% or more (almost completely withered))	4 (Herbicidal ratio of 70% or higher and lower than 90%)	0 (Herbicidal ratio of 5% or lower (almost no effect))	5 (Herbicidal ratio of 90% or more (almost completely withered))	5 (Herbicidal ratio of 90% or more (almost completely withered))	5 (Herbicidal ratio of 90% or more (almost completely withered))	5 (Herbicidal ratio of 90% or more (almost completely withered))
CON=C(C)CC1CC(OC(=O)C(C)Cl)=C(c2c(C)cc(C)cc2C)C1=O (centres unmarked) [1-042]	0 (Herbicidal ratio of 5% or lower (almost no effect))	3 (Herbicidal ratio of 40% or higher and lower than 70%)	1 (Herbicidal ratio of 5% or higher and lower than 20%)	3 (Herbicidal ratio of 40% or higher and lower than 70%)	5 (Herbicidal ratio of 90% or more (almost completely withered))	0 (Herbicidal ratio of 5% or lower (almost no effect))	5 (Herbicidal ratio of 90% or more (almost completely withered))	4 (Herbicidal ratio of 70% or higher and lower than 90%)	5 (Herbicidal ratio of 90% or more (almost completely withered))	5 (Herbicidal ratio of 90% or more (almost completely withered))	3 (Herbicidal ratio of 40% or higher and lower than 70%)	4 (Herbicidal ratio of 70% or higher and lower than 90%)	5 (Herbicidal ratio of 90% or more (almost completely withered))	5 (Herbicidal ratio of 90% or more (almost completely withered))	5 (Herbicidal ratio of 90% or more (almost completely withered))	5 (Herbicidal ratio of 90% or more (almost completely withered))
CON=C(CC1CC(O)=C(c2c(C)cc(C)cc2C)C1=O)c1ccccn1 (centres unmarked) [1-045]	0 (Herbicidal ratio of 5% or lower (almost no effect))	1 (Herbicidal ratio of 5% or higher and lower than 20%)	0 (Herbicidal ratio of 5% or lower (almost no effect))	0 (Herbicidal ratio of 5% or lower (almost no effect))	4 (Herbicidal ratio of 70% or higher and lower than 90%)	0 (Herbicidal ratio of 5% or lower (almost no effect))	0 (Herbicidal ratio of 5% or lower (almost no effect))	0 (Herbicidal ratio of 5% or lower (almost no effect))	0 (Herbicidal ratio of 5% or lower (almost no effect))	5 (Herbicidal ratio of 90% or more (almost completely withered))	0 (Herbicidal ratio of 5% or lower (almost no effect))	0 (Herbicidal ratio of 5% or lower (almost no effect))	0 (Herbicidal ratio of 5% or lower (almost no effect))	5 (Herbicidal ratio of 90% or more (almost completely withered))	3 (Herbicidal ratio of 40% or higher and lower than 70%)	5 (Herbicidal ratio of 90% or more (almost completely withered))
CON=C(CC1CC(O)=C(c2c(C)cc(C)cc2C)C1=O)c1ccccc1 (centres unmarked) [1-047]	0 (Herbicidal ratio of 5% or lower (almost no effect))	0 (Herbicidal ratio of 5% or lower (almost no effect))	0 (Herbicidal ratio of 5% or lower (almost no effect))	0 (Herbicidal ratio of 5% or lower (almost no effect))	3 (Herbicidal ratio of 40% or higher and lower than 70%)	0 (Herbicidal ratio of 5% or lower (almost no effect))	0 (Herbicidal ratio of 5% or lower (almost no effect))	0 (Herbicidal ratio of 5% or lower (almost no effect))	0 (Herbicidal ratio of 5% or lower (almost no effect))	3 (Herbicidal ratio of 40% or higher and lower than 70%)	0 (Herbicidal ratio of 5% or lower (almost no effect))	0 (Herbicidal ratio of 5% or lower (almost no effect))	0 (Herbicidal ratio of 5% or lower (almost no effect))	1 (Herbicidal ratio of 5% or higher and lower than 20%)	2 (Herbicidal ratio of 20% or higher and lower than 40%)	1 (Herbicidal ratio of 5% or higher and lower than 20%)
CON=C(CC1CC(O)=C(c2c(C)cc(C)cc2C)C1=O)C(C)C (centres unmarked) [1-048]	3 (Herbicidal ratio of 40% or higher and lower than 70%)	0 (Herbicidal ratio of 5% or lower (almost no effect))	3 (Herbicidal ratio of 40% or higher and lower than 70%)	3 (Herbicidal ratio of 40% or higher and lower than 70%)	5 (Herbicidal ratio of 90% or more (almost completely withered))	0 (Herbicidal ratio of 5% or lower (almost no effect))	5 (Herbicidal ratio of 90% or more (almost completely withered))	1 (Herbicidal ratio of 5% or higher and lower than 20%)	0 (Herbicidal ratio of 5% or lower (almost no effect))	5 (Herbicidal ratio of 90% or more (almost completely withered))	3 (Herbicidal ratio of 40% or higher and lower than 70%)	1 (Herbicidal ratio of 5% or higher and lower than 20%)	5 (Herbicidal ratio of 90% or more (almost completely withered))	5 (Herbicidal ratio of 90% or more (almost completely withered))	5 (Herbicidal ratio of 90% or more (almost completely withered))	4 (Herbicidal ratio of 70% or higher and lower than 90%)
